Test results taken from patent publication US20110190125A1, “2-(BENZYLSULFONYL)OXAZOLE DERIVATIVES, CHIRAL 2-(BENZYLSULFINYL)OXAZOLE DERIVATIVES” (BAYER CROPSCIENCE AG, priority 2008, published 2011).

Key:
Assay type in all cases: in vivo
Lolium multiflorum [1] = experiment: Pre-emergence herbicidal effect (greenhouse pot test); conditions: pre-emergence method, application rate of 0.32 kg and less of active substance per hectare, scored visually after about 3 weeks
Text: (§1) Seeds of monocotyledonous or dicotyledonous weed plants or crop plants are placed in sandy loam in wood-fiber pots and covered with soil. The compounds according to the invention, formulated in the form of wettable powders (WP), are then applied as aqueous suspension at a water application rate of 600 I/ha (converted) with the addition of 0.2% of wetting agent to the surface of the covering soil.
(§2) After the treatment, the pots are placed in a greenhouse and kept under good growth conditions for the test plants. After about 3 weeks, the effect of the preparations is scored visually in comparison with untreated controls (herbicidal effect in percent (%): 100% activity=the plants have died, 0% activity=like control plants).

Alopecurus myosuroides = experiment: as above; conditions: pre-emergence method, application rate of 0.32 kg and less of active substance per hectare, scored visually after about 3 weeks
Text: as §1, §2

Veronica persica = experiment: as above; conditions: pre-emergence method, application rate of 0.32 kg and less of active substance per hectare, scored visually after about 3 weeks
Text: as §1, §2

Echinochloa crus galli [2] = experiment: as above; conditions: pre-emergence method, application rate of 0.32 kg and less of active substance per hectare, scored visually after about 3 weeks
Text: as §1, §2

Lolium multiflorum [3] = experiment: Post-emergence herbicidal effect (greenhouse pot test); conditions: post-emergence method, application rate of 0.32 kg and less of active substance per hectare, rated visually after about 3 weeks
Description: (§3) Seeds of monocotyledonous and dicotyledonous weed and crop plants are placed in sandy loam in wood-fiber pots, covered with soil and cultivated in a greenhouse under good growth conditions. 2 to 3 weeks after sowing, the test plants are treated at the one-leaf stage. The compounds according to the invention, formulated in the form of wettable powders (WP), are then sprayed as aqueous suspension at a water application rate of 600 I/ha (converted) with the addition of 0.2% of wetting agent onto the green parts of the plants. After the test plants have been kept in the greenhouse under optimum growth conditions for about 3 weeks, the activity of the preparations is rated visually in comparison to untreated controls (herbicidal activity in percent (%): 100% activity=the plants have died, 0% activity=like control plants).

Echinochloa crus galli [4] = experiment: as above; conditions: post-emergence method, application rate of 0.32 kg and less of active substance per hectare, rated visually after about 3 weeks
Description: as §3

Cc1ccc(F)c(C[S+]([O-])c2ncco2)c1F (stereo not drawn) [compound No. 14, 2-[(2,6-Difluoro-3-methylbenzyl)sulfinyl]-1,3-oxazole]
very good herbicidal activity: herbicidal activity against Lolium multiflorum (Lolium multiflorum [1]) | herbicidal activity against Alopecurus myosuroides (Alopecurus myosuroides) | herbicidal activity against Veronica persica (Veronica persica) | herbicidal activity against Echinochloa crus galli (Echinochloa crus galli [2])

O=S(=O)(Cc1c(Cl)ccc(Cl)c1Cl)c1ncco1 [compound No. 66, 2-[(2,3,6-Trichlorobenzyl)sulfonyl]-1,3-oxazole]
very good herbicidal activity: herbicidal activity against Lolium multiflorum (Lolium multiflorum [1]) | herbicidal activity against Alopecurus myosuroides (Alopecurus myosuroides) | herbicidal activity against Veronica persica (Veronica persica) | herbicidal activity against Echinochloa crus galli (Echinochloa crus galli [2])

[O-][S+](Cc1c(F)ccc(F)c1Cl)c1ncco1 (stereo not drawn) [compound No. 203, 2-[(2-Chloro-3,6-difluorobenzyl)sulfinyl]-1,3-oxazole]
very good herbicidal activity: herbicidal activity against Lolium multiflorum (Lolium multiflorum [3]) | herbicidal activity against Echinochloa crus galli (Echinochloa crus galli [4]) | herbicidal activity against Lolium multiflorum (Lolium multiflorum [1]) | herbicidal activity against Alopecurus myosuroides (Alopecurus myosuroides) | herbicidal activity against Veronica persica (Veronica persica) | herbicidal activity against Echinochloa crus galli (Echinochloa crus galli [2])

Cc1ccc(C)c(C[S+]([O-])c2ncco2)c1 (stereo not drawn) [compound No. 131, 2-[(2,5-Dimethylbenzyl)sulfinyl]-1,3-oxazole]
very good herbicidal activity: herbicidal activity against Lolium multiflorum (Lolium multiflorum [3]) | herbicidal activity against Echinochloa crus galli (Echinochloa crus galli [4]) | herbicidal activity against Lolium multiflorum (Lolium multiflorum [1]) | herbicidal activity against Alopecurus myosuroides (Alopecurus myosuroides) | herbicidal activity against Veronica persica (Veronica persica) | herbicidal activity against Echinochloa crus galli (Echinochloa crus galli [2])

[O-][S+](Cc1c(F)cccc1F)c1ncco1 (stereo not drawn) [compound No. 11, 2-[(2,6-Difluorobenzyl)sulfinyl]-1,3-oxazole]
very good herbicidal activity: herbicidal activity against Lolium multiflorum (Lolium multiflorum [1]) | herbicidal activity against Alopecurus myosuroides (Alopecurus myosuroides) | herbicidal activity against Veronica persica (Veronica persica) | herbicidal activity against Echinochloa crus galli (Echinochloa crus galli [2])

[O-][S+](Cc1c(Cl)cccc1Cl)c1ncco1 (racemic) [compound 44, 2-[(2,6-dichlorobenzyl)sulfinyl]-1,3-oxazole]
very good herbicidal activity: herbicidal activity against Lolium multiflorum (Lolium multiflorum [3]) | herbicidal activity against Echinochloa crus galli (Echinochloa crus galli [4]) | herbicidal activity against Lolium multiflorum (Lolium multiflorum [1]) | herbicidal activity against Alopecurus myosuroides (Alopecurus myosuroides) | herbicidal activity against Veronica persica (Veronica persica) | herbicidal activity against Echinochloa crus galli (Echinochloa crus galli [2])

[O-][S+](Cc1c(Cl)ccc(Cl)c1Cl)c1ncco1 (stereo not drawn) [compound No. 65, 2-[(2,3,6-Trichlorobenzyl)sulfinyl]-1,3-oxazole]
very good herbicidal activity: herbicidal activity against Lolium multiflorum (Lolium multiflorum [3]) | herbicidal activity against Echinochloa crus galli (Echinochloa crus galli [4]) | herbicidal activity against Lolium multiflorum (Lolium multiflorum [1]) | herbicidal activity against Alopecurus myosuroides (Alopecurus myosuroides) | herbicidal activity against Veronica persica (Veronica persica) | herbicidal activity against Echinochloa crus galli (Echinochloa crus galli [2])

[O-][S@@+](Cc1c(Cl)cccc1Cl)c1ncco1 [compound 2517]
very good herbicidal activity: herbicidal activity against Lolium multiflorum (Lolium multiflorum [3]) | herbicidal activity against Echinochloa crus galli (Echinochloa crus galli [4]) | herbicidal activity against Lolium multiflorum (Lolium multiflorum [1]) | herbicidal activity against Alopecurus myosuroides (Alopecurus myosuroides) | herbicidal activity against Veronica persica (Veronica persica) | herbicidal activity against Echinochloa crus galli (Echinochloa crus galli [2])
